Results from patent US8557848B2, “4,5-ring annulated indole derivatives for treating or preventing of HCV and related viral infections” (Merck Sharp & Dohme Corp., priority 2006, dated 2013).
Where two headings read alike, the source gives them in different places.

Legend:
[1] = system: HCV replicon cells (replicon RNA level); test: Cell-Based HCV Replicon Assay; settings: Hepatitis C virus, 72 h; replicon RNA level by real time PCR (Taqman), cells harvested on day 3; read-out: EC50
Experimental: To measure cell-based anti-HCV activity of the a Compound of Formula (I), replicon cells were seeded at 5000 cells/well in 96-well collagen I-coated Nunc plates in the presence of the Compound of Formula (I). Various concentrations of a Compound of Formula (I), typically in 10 serial 2-fold dilutions, were added to the assay mixture, with the starting concentration ranging from 250 μM to 1 μM. The final concentration of DMSO was 0.5%, fetal bovine serum was 5%, in the assay media. Cells were harvested on day 3 by the addition of 1× cell lysis buffer (Ambion cat #8721). The replicon RNA level was measured using real time PCR (Taqman assay). The amplicon was located in 5B. The PCR primers were: 5B.2F, ATGGACAGGCGCCCTGA; 5B.2R, […]; the probe sequence was FAM-labeled CACGCCATGCGCTGCGG. GAPDH RNA was used as endogenous control and was amplified in the same reaction as NS5B (multiplex PCR) using primers and VIC-labeled probe recommended by the manufacturer (PE Applied Biosystem). The real-time RT-PCR reactions were run on ABI PRISM 7900HT Sequence Detection System using the following program: 48° C. for 30 min, 95° C. for 10 min, 40 cycles of 95° C. for 15 sec, 60° C. for 1 min. The ΔCT values (CT5B-CTGAPDH) were plotted against the concentration of test compound and fitted to the sigmoid dose-response model using XLfit4 (MDL). EC50 was defined as the concentration of inhibitor necessary to achieve ΔCT=1 over the projected baseline; EC90 the concentration necessary to achieve ΔCT=3.2 over the baseline. Alternatively, to quantitate the absolute amount of replicon RNA, a standard curve was established by including serially diluted T7 transcripts of replicon RNA in the Taqman assay. All Taqman reagents were from PE Applied Biosystems. Such an assay procedure was described in detail in e.g. Malcolm et al., Antimicrobial Agents and Chemotherapy 50: 1013-1020 (2006).
HCV Replicon assay data for selected Compounds of Formula (I) is provided below in Table 1, wherein the compound numbers correspond to the compound numbering set forth in the above specification.

[2] = molecular target: T1, HCV NS5B polymerase (NS5BΔCT21, from HCV-Con 1 isolate, genotype 1b) (Hepatitis C virus genotype 1b, UniProt Q9WMX2); test: HCV NS5B Polymerase Inhibition Assay; type: biochemical
T1 construct: A soluble C-terminal 21-amino acid truncated NS5B enzyme form; polyhistidine (C); made in house; host or cells: Escherichia coli
Excerpt: A chemically synthesized 75-mer version, designated DCoH75, whose sequence matches the 3′-end of D-RNA, and DCoH75ddC, where the 3′-terminal cytidine of DCoH75 is replaced by dideoxycytidine, were used for assaying the NS5B enzyme activity as described in Ferrari et al., 12th International Symposium on HCV and Related Viruses, P-306 (2005). The sequence of the template RNA was: 5′-UGUGCCGGUCUUUCUGAACGGGAUAUAAACCUGGCCAGCUUCAUCGAACAAGUUGCCGUGUCUAUGACAUAGAUC-3′. A soluble C-terminal 21-amino acid truncated NS5B enzyme form (NS5BΔCT21, from HCV-Con 1 isolate, genotype 1b, Genbank accession number AJ238799) was produced and purified from Escherichia coli as C-terminal polyhistidine-tagged fusion protein as described in Ferrari et al., J. Virol. 73:1649-1654 (1999). A typical assay contained 20 mM Hepes pH 7.3, 10 mM MgCl2, 60 mM NaCl, 100 μg/ml BSA, 20 units/ml RNasin, 7.5 mM DTT, 0.1 μM ATP/GTP/UTP, 0.026 μM CTP, 0.25 mM GAU, 0.03 μM RNA template, 20 μCi/ml [^33P]-CTP, 2% DMSO, and 30 or 150 nM NS5B enzyme. Reactions were incubated at 22° C. for 2 hours, then stopped by adding 150 mM EDTA, washed in DE81 filter plate in 0.5M di-basic sodium phosphate buffer, pH 7.0, and counted using Packard TopCount after the addition of scintillation cocktail. Polynucleotide synthesis was monitored by the incorporation of radiolabeled CTP. The effect of the Compounds of Formula (I) on the polymerase activity was evaluated by adding various concentrations of a Compound of Formula (I), typically in 10 serial 2-fold dilutions, to the assay mixture. The starting concentrations ranged from 200 μM to 1 μM. An IC50 value for the inhibitor, defined as the compound concentration that provides 50% inhibition of polymerase activity, was determined by fitting the cpm data to the Hill equation Y=100/(1+10^((LogIC50-X)*HillSlope)), where X is the logarithm of compound concentration, and Y is the % inhibition. Ferrari et al., 12th International Symposium on HCV and Related Viruses, P-306 (2005) described in detail this assay procedure. It should be noted that such an assay as described is exemplary and not intended to limit the scope of the invention. The skilled practitioner can appreciate that modifications including but not limited to RNA template, primer, nucleotides, NS5B polymerase form, buffer composition, can be made to develop similar assays that yield the same result for the efficacy of the compounds and compositions described in the invention.
NS5B polymerase inhibition data for selected Compounds of Formula (I) is provided below in Table 2, wherein the compound numbers correspond to the compound numbering set forth in the above specification.

[3] = NS5B polymerase inhibition, [33P]-CTP incorporation, 22° C. for 2 hours, read-out: IC50

With `O=C(O)c1c(-c2ccc[nH]c2=O)c2c3occc3c(F)cc2n1Cc1cc2nc[nH]c2cc1Cl` [Compound 120] the EC50 [1] was less than 500 nM and the IC50 [2, 3] was less than 25 nM.
`CNC(=O)c1ccc(F)c(Cn2c(C(=O)O)c(-c3ccc[nH]c3=O)c3c4occc4c(F)cc32)c1` [Compound 121] gave an EC50 [1] of less than 500 nM and an IC50 [2, 3] of less than 25 nM.
With `O=C(O)c1c(-c2ccc[nH]c2=O)c2c3occc3c(F)cc2n1Cc1cc2ccccc2nc1Cl` [Compound 126] the EC50 [1] was less than 500 nM and the IC50 [2] was less than 25 nM.
`O=C(O)c1c(-c2ccc[nH]c2=O)c2c3occc3c(F)cc2n1Cc1cc2c(=O)[nH]cnc2cc1F` [Compound 127] showed an EC50 [1] of less than 500 nM and an IC50 [2, 3] of less than 25 nM.
With `O=C(O)c1c(-c2ccccc2F)c2c3occc3c(F)cc2n1Cc1cc2ccccc2nc1Cl` [Compound 128] the EC50 [1] was less than 500 nM and the IC50 [2, 3] was greater than 100 nM.
Work on `CCOC(=O)c1c(-c2ccc[nH]c2=O)c2c3occc3c(F)cc2n1Cc1cc(C(N)=O)ccc1F` [Compound 130] yielded an EC50 [1] of less than 500 nM and an IC50 [2, 3] of 25 to 100 nM.
For `O=C(O)c1c(-c2ccc[nH]c2=O)c2c3occc3c(F)cc2n1Cc1cc2[nH]c(=O)[nH]c2cc1Cl` [Compound 131], the EC50 [1] was less than 500 nM and the IC50 [2, 3] was less than 25 nM.
`Cc1cc2ccc3c(c(-c4ccc[nH]c4=O)c(C(=O)NS(C)(=O)=O)n3Cc3ccccc3F)c2o1` [Compound 132] showed an EC50 [1] of 500 to 1500 nM and an IC50 [2, 3] of 25 to 100 nM.
In the case of `CS(=O)(=O)NC(=O)c1c(-c2ccc[nH]c2=O)c2c3occc3c(F)cc2n1Cc1ccnc(N)c1` [Compound 133], the EC50 [1] is reported as less than 500 nM and the IC50 [2, 3] is reported as less than 25 nM.
Work on `CS(=O)(=O)NC(=O)c1c(-c2ccc[nH]c2=O)c2c3occc3c(F)cc2n1Cc1ccccc1F` [Compound 134] yielded an EC50 [1] of less than 500 nM and an IC50 [2, 3] of less than 25 nM.
`O=C(O)c1c(-c2ccc[nH]c2=O)c2c3occc3c(F)cc2n1Cc1cc(=O)[nH]cc1Br` [Compound 135] showed an EC50 [1] of less than 500 nM and an IC50 [2, 3] of less than 25 nM.
For `O=C(O)c1c(-c2ccc[nH]c2=O)c2c3occc3c(F)cc2n1Cc1nc(Br)ccc1F` [Compound 136], the EC50 [1] was less than 500 nM and the IC50 [2, 3] was less than 25 nM.
`Cc1ccccc1Cn1c(C(=O)NS(=O)(=O)C2CC2)c(-c2ccc[nH]c2=O)c2c3occc3ccc21` [Compound 138] gave an EC50 [1] of less than 500 nM and an IC50 [2, 3] of less than 25 nM.
`Cc1ccc2cc(Cn3c(C(=O)O)c(-c4ccc[nH]c4=O)c4c5occc5c(F)cc43)c(Cl)nc2c1` [Compound 139] gave an EC50 [1] of less than 500 nM and an IC50 [2, 3] of less than 25 nM.
With `Cc1ccc2nc(Cl)c(Cn3c(C(=O)O)c(-c4ccc[nH]c4=O)c4c5occc5c(F)cc43)cc2c1` [Compound 140] the EC50 [1] was less than 500 nM and the IC50 [2, 3] was less than 25 nM.
Molecule `O=C(NC1CC1)c1ccc(F)c(Cn2c(C(=O)O)c(-c3ccc[nH]c3=O)c3c4occc4c(F)cc32)c1` [Compound 141] has an EC50 [1] greater than 1500 nM and an IC50 [2, 3] of less than 25 nM.
In the case of `Cc1nn(C)c2nc(Cl)c(Cn3c(C(=O)O)c(-c4ccc[nH]c4=O)c4c5occc5c(F)cc43)cc12` [Compound 143], the EC50 [1] is reported as less than 500 nM and the IC50 [2, 3] is reported as less than 25 nM.
In the case of `O=C(O)c1c(-c2ccc[nH]c2=O)c2c3occc3c(F)cc2n1Cc1ccc2[nH]c(C(F)(F)F)nc2c1` [Compound 145], the EC50 [1] is reported as 500 to 1500 nM and the IC50 [2, 3] is reported as less than 25 nM.
Molecule `Cc1cccc(Cn2c(C(=O)NS(C)(=O)=O)c(-c3ccc[nH]c3=O)c3c4occc4c(F)cc32)c1F` [Compound 146] has an EC50 [1] of less than 500 nM and an IC50 [2, 3] of less than 25 nM.
In the case of `Cc1cc2ccc3c(c(-c4ccc[nH]c4=O)c(C(=O)NS(C)(=O)=O)n3Cc3cc(F)ccc3F)c2o1` [Compound 147], the EC50 [1] is reported as greater than 1500 nM and the IC50 [2, 3] is reported as less than 25 nM.
Molecule `C[C@@H]1COc2c1ccc1c2c(-c2ccc[nH]c2=O)c(C(=O)NS(C)(=O)=O)n1Cc1cc(F)ccc1F` [Compound 148] has an EC50 [1] of less than 500 nM and an IC50 [2, 3] of less than 25 nM.
With `CS(=O)(=O)NC(=O)c1c(-c2ccc[nH]c2=O)c2c3occc3c(F)cc2n1Cc1cc(F)ccc1F` [Compound 150] the EC50 [1] was less than 500 nM and the IC50 [2, 3] was less than 25 nM.
With `CS(=O)(=O)NC(=O)c1c(-c2ccc[nH]c2=O)c2c3occc3cc(F)c2n1Cc1cc(F)ccc1F` [Compound 151] the EC50 [1] was 500 to 1500 nM and the IC50 [2, 3] was less than 25 nM.
With `Cc1ccc(Cn2c(C(=O)NS(=O)(=O)C3CC3)c(-c3ccc[nH]c3=O)c3c4occc4ccc32)c(C)c1` [Compound 152] the EC50 [1] was less than 500 nM and the IC50 [2, 3] was less than 25 nM.
Work on `COc1ccc2cc(Cn3c(C(=O)O)c(-c4ccc[nH]c4=O)c4c5occc5c(F)cc43)c(Cl)nc2c1` [Compound 153] yielded an EC50 [1] of less than 500 nM and an IC50 [2, 3] of less than 25 nM.
With `COc1ccc2nc(Cl)c(Cn3c(C(=O)O)c(-c4ccc[nH]c4=O)c4c5occc5c(F)cc43)cc2c1` [Compound 154] the EC50 [1] was less than 500 nM and the IC50 [2, 3] was less than 25 nM.
`Cc1cccc(Cn2c(C(=O)NS(=O)(=O)C3CC3)c(-c3ccc[nH]c3=O)c3c4occc4ccc32)c1F` [Compound 155] was tested, and the EC50 [1] was less than 500 nM and the IC50 [2, 3] was less than 25 nM.
`CC(C)n1ncc2cc(Cn3c(C(=O)O)c(-c4ccc[nH]c4=O)c4c5occc5c(F)cc43)c(Cl)nc21` [Compound 156] showed an EC50 [1] of 500 to 1500 nM and an IC50 [2, 3] of less than 25 nM.
`Cc1cccc(Cn2c(C(=O)NS(=O)(=O)C(C)C)c(-c3ccc[nH]c3=O)c3c4occc4ccc32)c1F` [Compound 158] was tested, and the EC50 [1] was 500 to 1500 nM and the IC50 [2, 3] was less than 25 nM.
`O=C(O)c1c(-c2ccc[nH]c2=O)c2c3occ(Cl)c3c(F)cc2n1Cc1cc2ccccc2nc1Cl` [Compound 159] gave an EC50 [1] of less than 500 nM and an IC50 [2, 3] of less than 25 nM.
Molecule `CS(=O)(=O)NC(=O)c1c(-c2ccc[nH]c2=O)c2c3occc3ccc2n1Cc1cc(C(N)=O)ccc1F` [Compound 161] has an EC50 [1] of less than 500 nM and an IC50 [2, 3] of less than 25 nM.
Work on `O=C(NS(=O)(=O)C1CC1)c1c(-c2ccc[nH]c2=O)c2c3occc3c(F)cc2n1Cc1ccccc1F` [Compound 162] yielded an EC50 [1] of less than 500 nM and an IC50 [2, 3] of less than 25 nM.
In the case of `CC(C)S(=O)(=O)NC(=O)c1c(-c2ccc[nH]c2=O)c2c3occc3c(F)cc2n1Cc1ccccc1F` [Compound 163], the EC50 [1] is reported as less than 500 nM and the IC50 [2, 3] is reported as less than 25 nM.
`O=C(NS(=O)(=O)C1CC1)c1c(-c2ccc[nH]c2=O)c2c3c(ccc2n1Cc1cc(F)ccc1F)CCO3` [Compound 164] showed an EC50 [1] of less than 500 nM and an IC50 [2, 3] of less than 25 nM.
Molecule `CS(=O)(=O)NC(=O)c1c(-c2ccc[nH]c2=O)c2c3occc3c(F)cc2n1Cc1csc(C(N)=O)c1` [Compound 165] has an EC50 [1] of less than 500 nM and an IC50 [2, 3] of less than 25 nM.
In the case of `CS(=O)(=O)NC(=O)c1c(-c2ccc[nH]c2=O)c2c3c(c(F)cc2n1Cc1csc(C(N)=O)c1)CCO3` [Compound 167], the EC50 [1] is reported as less than 500 nM and the IC50 [2, 3] is reported as less than 25 nM.
For `CSc1ccc2cc(Cn3c(C(=O)O)c(-c4ccc[nH]c4=O)c4c5occc5c(F)cc43)c(Cl)nc2c1` [Compound 168], the EC50 [1] was less than 500 nM and the IC50 [2, 3] was less than 25 nM.
